Experimental data as given in patent publication US20060269935A1, “Genetic predictor for clinical use of drugs used in the treatment of neurological conditions” (UCL Biomedica PLC, priority 2005, published 2006).
Read-outs that look alike come from different tables or passages of the source.

Key:
[1] = test system: patients with a diagnosis of epilepsy; conditions: human, in vivo
Description: In this study we have considered the known functional alleles *2 and *3 at the CYP2C9 gene, and the putatively functional 3435C>T polymorphism in the ABCB1 gene. As no common functional variants are known for SCN1A, we used a haplotype tagging strategy (Weale et al., Am J. Hum. Genet. 73, 551-565, 2003). […] For carbamazepine, we related variation in both SCN1A and ABCB1 to maximum dose in 425 patients. Finally, we tested for association with presence or absence of ADRs. […] In most, but not all cases the maximum dose used here will also be the maintenance dose, since starting doses tend to be lower than what is required (see discussion below).
The study was approved by the relevant institutional Ethics Committees. Patients who self-identified, or were determined by the treating physician, as being of North Western European origin with a diagnosis of epilepsy were recruited from the specialised epilepsy clinic of the National Hospital for Neurology and Neurosurgery after written informed consent was obtained. Extensive clinical data were obtained and stored in a computerized database. […]
The following clinical details were recorded whenever available: date when phenytoin/carbamazepine was started and stopped, maximum dosage reached, response and occurrence of ADRs. […]

CYP2C9*2 = CYP2C9*2 (Homo sapiens, UniProt P11712, R144C); conditions: in vitro expression; cited from earlier work
[2] = cited from earlier work; for Serum concentrations of phenytoin: single dose, healthy volunteers
CYP2C9 = CYP2C9 (Homo sapiens, UniProt P11712); conditions: estimated; cited from earlier work

SMILES | Average dose range across genotypes [1] [mg] | Reduction in phenytoin clearance compared to *1 (CYP2C9*2) [% reduction in] | Serum concentrations of phenytoin ([2]; *2 carriers) | Maximal elimination rates ([2]; *3 carriers compared with *1/1 patients) | Serum concentrations of phenytoin ([2]; *3 carriers) | Share of phenytoin inactivation for which CYP2C9 is responsible (CYP2C9)
NC(=O)N1c2ccccc2C=Cc2ccccc21 [carbamazepine, 5H-dibenz[b,f]azepine-5-carboxamide] | 230 |  |  |  |  | 
O=C1NC(=O)C(c2ccccc2)(c2ccccc2)N1 [phenytoin, 5,5-diphenylhydantoin] | 127 | 29 | *2 carriers have increased serum | *3 carriers have significantly lower | patients(33, 34) and increased serum | up to 90%
